Values quoted from earlier work, collected in patent US6476042B1, “Combination therapy for the treatment of migraine” (Pfizer Inc., priority 1999, dated 2002).

Test system: carotid vascular resistance
Conditions: anaesthetized dog

CNS(=O)(=O)Cc1ccc2[nH]cc(CCN(C)C)c2c1 [Sumatriptan, sumatriptan]
effect on carotid vascular resistance: selective increase
